The values that follow come from US7405036B2, “Process for reducing pathogens in a biological sample and removing a sample pellet from a sample tube” (priority 2001, dated 2008).

One data set concerns Campylobacter fetus. It counts as cell-based.
In a further data set the test system is Mycoplasma species. Conditions: 200 μg/ml; cited from earlier work.
Data set [1] has as its system fresh semen of domestic bulls and gaur bulls. It counts as cell-based, Bos taurus, Bos gaur.
Data set [2] deals with bovine (Bos gaurus) sperm. Briefly: Percoll density gradient with trypsin, viability of cryopreserved sperm.
The test system of data set [3] is cultured cells and embryos. Conditions: up to 1000 μg/ml; cited from earlier work.

Consider `CCC[C@@H]1C[C@@H](C(=O)N[C@@H]([C@H]2O[C@H](SC)[C@H](O)[C@@H](O)[C@H]2O)[C@@H](C)O)N(C)C1` [lincomycin], for which the “sensitivity of C. fetus to antibiotic” value in the data set on Campylobacter fetus is reported as “sensitive”.
On the same count and under the same terms, under `CN[C@@H]1[C@H](O)[C@H](NC)[C@H]2O[C@@]3(O)C(=O)C[C@@H](C)O[C@H]3O[C@@H]2[C@H]1O` [spectinomycin] stands “intermediate”.
For the compound `CC[C@H]1OC(=O)C[C@@H](O)[C@H](C)[C@@H](O[C@@H]2O[C@H](C)[C@@H](O[C@H]3C[C@@](C)(O)[C@@H](O)[C@H](C)O3)[C@H](N(C)C)[C@H]2O)[C@@H](CC=O)C[C@@H](C)C(=O)/C=C/C(C)=C/[C@@H]1CO[C@@H]1O[C@H](C)[C@@H](O)[C@@H](OC)[C@H]1OC` [tylosin], the “sensitivity of C. fetus to antibiotic” value with Campylobacter fetus is reported as “intermediate”. Also, in the data set with Mycoplasma species, the “elimination of Mycoplasma species from bovine embryos” value is “capable of eliminating” and the embryo viability result is reported as “without effecting embryo viability”.
Turning to trypsin, in data set [1], the acrosomal integrity result was “nor any significant damage”, the overall motility entry is reported as “no significant reduction” and the “viability (vital staining)” value is “no reduction”. In addition, the “effect on sperm of increasing trypsin concentration” value in data set [2] is reported as “no detrimental effects”.
Consider `NC[C@H]1O[C@H](O[C@H]2[C@H](O)[C@@H](O[C@H]3O[C@H](CO)[C@@H](O)[C@H](N)[C@H]3O)[C@H](N)C[C@@H]2N)[C@H](O)[C@@H](O)[C@@H]1O` [kanamycin], for which the “toxicity to cultured cells and embryos” value in data set [3] was “very little toxicity”.
